Values after ≈ are worked out from the molar mass of the structure shown.
How the values were obtained:
Assay in all cases: ≥ marks a high value that may be exact or a test limit, other limits are often not marked, values filed in µg/mL are converted to µM
[1] = test system: Bacillus subtilis ATCC 6633
[2] = test system: Escherichia coli ATCC 8739
[3] = test system: Staphylococcus aureus ATCC 43300
[4] = test system: Staphylococcus aureus ATCC 6538
Bacillus subtilis 168 = test system: Bacillus subtilis 168
[5] = test system: Candida albicans F7-39/IDE99
Escherichia coli B = test system: Escherichia coli B
[6] = test system: Micrococcus luteus CCM 144
[7] = test system: Pseudomonas aeruginosa ATCC 27853
Pseudomonas aeruginosa = test system: Pseudomonas aeruginosa
Staphylococcus aureus = test system: Staphylococcus aureus
[8] = test system: Staphylococcus epidermidis
[9] = test system: Candida albicans ATCC 90028
[10] = test system: Enterococcus faecalis ATCC 29212
Escherichia coli UB1005 = test system: Escherichia coli UB1005
[11] = test system: Salmonella enterica subsp. enterica serovar Pullorum C79-13
[12] = test system: Salmonella enterica subsp. enterica serovar Typhimurium ATCC 14028
[13] = test system: Salmonella enterica subsp. enterica serovar Typhimurium C77-31
[14] = test system: Staphylococcus epidermidis ATCC 12228
Escherichia coli BW25113 = test system: Escherichia coli BW25113
Bacillus cereus AS1.126 = test system: Bacillus cereus AS1.126
[15] = test system: Enterococcus faecalis CGMCC 1.595
[16] = test system: Enterococcus faecium CGMCC 1.2334
Escherichia coli AS1.349 = test system: Escherichia coli AS1.349
[17] = test system: Lactococcus lactis AS1.1690
[18] = test system: Pseudomonas aeruginosa CGMCC 1.860
[19] = test system: Staphylococcus aureus AS1.72

CC[C@H](C)[C@H](NC(=O)CN)C(=O)N[C@@H](Cc1ccccc1)C(=O)N[C@@H](CO)C(=O)N[C@@H](CCCCN)C(=O)N[C@@H](Cc1ccccc1)C(=O)N[C@@H](C)C(=O)NCC(=O)N[C@@H](CCCCN)C(=O)NCC(=O)N[C@H](C(=O)N[C@@H](CCCCN)C(=O)N[C@@H](CC(N)=O)C(=O)N[C@@H](CC(C)C)C(=O)N[C@@H](CC(C)C)C(=O)N[C@H](C(=O)N[C@@H](CCCCN)C(=O)NCC(=O)N[C@H](C(=O)N[C@@H](CCCCN)C(=O)N[C@@H](CC(N)=O)C(=O)N[C@H](C(=O)NCC(=O)N[C@@H](CCCCN)C(=O)N[C@@H](CCC(=O)O)C(=O)N[C@H](C(=O)NCC(=O)N[C@@H](CCSC)C(=O)N[C@@H](CC(=O)O)C(=O)N[C@H](C(=O)N[C@H](C(=O)N[C@@H](CCCN=C(N)N)C(=O)N[C@H](C(=O)NCC(=O)N[C@H](C(=O)N[C@@H](CC(=O)O)C(=O)N[C@H](C(=O)N[C@@H](C)C(=O)NCC(=O)N[C@H]1CSSC[C@@H](C(=O)O)NC(=O)[C@H](CCC(=O)O)NC(=O)CNC(=O)[C@H](CCCCN)NC(=O)[C@H]([C@@H](C)CC)NC(=O)[C@H](CCCCN)NC1=O)[C@@H](C)CC)[C@@H](C)CC)[C@@H](C)O)[C@@H](C)CC)C(C)C)C(C)C)[C@@H](C)CC)C(C)C)C(C)C)[C@@H](C)CC [GIFSKFAGKGIKNLLVKGVKNIGKEVGMDVIRTGIDIAGCKIKGEC]
MIC [1]: 25 µM (≈ 120 µg/mL)
MIC [2]: 6.3 µM (≈ 30.3 µg/mL)
MIC [3]: 25 µM (≈ 120 µg/mL)
MIC [4]: 3.1 µM (≈ 14.9 µg/mL)

CC[C@H](C)[C@H](NC(=O)CN)C(=O)N[C@@H](CC(C)C)C(=O)N[C@@H](CO)C(=O)N[C@@H](CO)C(=O)N[C@@H](CC(C)C)C(=O)N[C@@H](Cc1c[nH]c2ccccc12)C(=O)N[C@@H](CCCCN)C(=O)N[C@@H](CCCCN)C(=O)N1CCC[C@H]1C(=O)N[C@@H](CCCCN)C(=O)N[C@@H](CCCCN)C(=O)N[C@H](C(=O)N[C@H](C(=O)N[C@@H](C)C(=O)N[C@@H](CCCCN)C(N)=O)[C@@H](C)CC)[C@@H](C)CC [GILSSLWKKPKKIIAK]
MIC (Bacillus subtilis 168): ≥ 49 µM
MIC [5]: ≥ 100 µM
MIC (Escherichia coli B): ≥ 100 µM
MIC [6]: 5.8 µM (≈ 10.5 µg/mL)
MIC [7]: 98 µM (≈ 177 µg/mL)
MIC (Pseudomonas aeruginosa): > 100 µM
MIC [3]: > 100 µM
MIC (Staphylococcus aureus): > 100 µM
MIC [8]: ≥ 100 µM

CC[C@H](C)[C@H](NC(=O)CN)C(=O)N[C@@H](CC(C)C)C(=O)N[C@@H](CO)C(=O)N[C@H](C(=O)N[C@H](C(=O)N[C@@H](Cc1ccccc1)C(=O)N[C@@H](CCCCN)C(=O)N[C@@H](C)C(=O)NCC(=O)N[C@@H](CCCCN)C(=O)NCC(=O)N[C@H](C(=O)N[C@H](C(=O)N[C@H]1CSSC[C@@H](C(=O)O)NC(=O)[C@H](CC(C)C)NC(=O)CNC(=O)[C@H](CO)NC(=O)[C@H](CC(C)C)NC(=O)CNC1=O)C(C)C)[C@@H](C)CC)C(C)C)[C@@H](C)O [GILSTVFKAGKGIVCGLSGLC]
MIC [1]: 12.5 µM (≈ 25.3 µg/mL)
MIC [9]: ≥ 100 µM
MIC [2]: ≥ 50 µM
MIC [3]: 25 µM (≈ 50.5 µg/mL)
MIC [4]: 3.1 µM (≈ 6.27 µg/mL)

CC[C@H](C)[C@H](NC(=O)CN)C(=O)N[C@@H](CCSC)C(=O)N[C@@H](CO)C(=O)N[C@@H](CO)C(=O)N[C@@H](CC(C)C)C(=O)N[C@@H](CCSC)C(=O)N[C@@H](CCCCN)C(=O)N[C@@H](CCCCN)C(=O)N[C@@H](CC(C)C)C(=O)N[C@@H](C)C(=O)N[C@@H](C)C(=O)N[C@H](C(=O)N[C@H](C(=O)N[C@@H](C)C(=O)N[C@@H](CCCCN)C(N)=O)[C@@H](C)CC)[C@@H](C)CC [GIMSSLMKKLAAIIAK]
MIC (Bacillus subtilis 168): 7 µM (≈ 11.7 µg/mL)
MIC [5]: 8.4 µM (≈ 14.1 µg/mL)
MIC (Escherichia coli B): 3.6 µM (≈ 6.03 µg/mL)
MIC [6]: 3 µM (≈ 5.02 µg/mL)
MIC [7]: 8 µM (≈ 13.4 µg/mL)
MIC (Pseudomonas aeruginosa): 17 µM (≈ 28.5 µg/mL)
MIC [3]: 7.2 µM (≈ 12.1 µg/mL)
MIC (Staphylococcus aureus): 10 µM (≈ 16.7 µg/mL)
MIC [8]: 5 µM (≈ 8.37 µg/mL)

CC[C@H](C)[C@H](NC(=O)[C@H](CC(C)C)NC(=O)[C@H](CCCCN)NC(=O)[C@@H](NC(=O)[C@@H](NC(=O)[C@H](CCCCN)NC(=O)[C@@H]1CCCN1C(=O)[C@H](CC(C)C)NC(=O)[C@@H](NC(=O)[C@H](CCCCN)NC(=O)[C@H](C)NC(=O)[C@H](CC(C)C)NC(=O)[C@H](CC(C)C)NC(=O)[C@H](CO)NC(=O)[C@H](C)NC(=O)[C@H](CCSC)NC(=O)CN)C(C)C)C(C)C)C(C)C)C(=O)N[C@@H](CCCCN)C(=O)O [GMASLLAKVLPKVVKLIK]
MIC (Bacillus subtilis 168): 3.4 µM (≈ 6.49 µg/mL)
MIC [5]: 12.1 µM (≈ 23.1 µg/mL)
MIC (Escherichia coli B): 1.8 µM (≈ 3.44 µg/mL)
MIC [6]: 1.2 µM (≈ 2.29 µg/mL)
MIC (Pseudomonas aeruginosa): 47.5 µM (≈ 90.7 µg/mL)
MIC (Staphylococcus aureus): 3.5 µM (≈ 6.68 µg/mL)

CC[C@H](C)[C@H](NC(=O)[C@H](CCCCN)NC(=O)[C@H](CCCCN)NC(=O)[C@H](Cc1ccccc1)NC(=O)[C@H](CC(C)C)NC(=O)[C@H](CCCCN)NC(=O)[C@H](Cc1c[nH]c2ccccc12)NC(=O)[C@@H](N)CCCCN)C(=O)N[C@@H](CCCN=C(N)N)C(=O)N[C@@H](Cc1ccccc1)C(=O)NCC(=O)N[C@@H](CCCN=C(N)N)C(=O)N[C@@H](Cc1ccccc1)C(=O)N[C@@H](CC(C)C)C(=O)N[C@@H](CCCN=C(N)N)C(=O)N[C@@H](CCCCN)C(=O)N[C@H](C(=O)N[C@@H](CCCN=C(N)N)C(=O)N[C@@H](CCCN=C(N)N)C(=O)N[C@@H](Cc1ccccc1)C(=O)N[C@@H](CCCN=C(N)N)C(=O)N1CCC[C@H]1C(=O)N[C@@H](CCCCN)C(N)=O)[C@@H](C)CC [KWKLFKKIRFGRFLRKIRRFRPK]
MIC [10]: 4 µM (≈ 12.4 µg/mL)
MIC (Escherichia coli UB1005): 2 µM (≈ 6.21 µg/mL)
MIC [7]: 4 µM (≈ 12.4 µg/mL)
MIC [11]: 8 µM (≈ 24.8 µg/mL)
MIC [12]: 4 µM (≈ 12.4 µg/mL)
MIC [13]: 4 µM (≈ 12.4 µg/mL)
MIC [14]: 4 µM (≈ 12.4 µg/mL)

CC[C@H](C)[C@H](NC(=O)[C@H](C)NC(=O)CNC(=O)[C@H](CCCCN)NC(=O)[C@H](CC(N)=O)NC(=O)[C@@H](N)CC(C)C)C(=O)N[C@@H](CC(C)C)C(=O)N[C@@H](CCCCN)C(=O)N[C@@H](Cc1cnc[nH]1)C(=O)N[C@H](C(=O)N[C@H](C(=O)N[C@@H](CCCCN)C(N)=O)[C@@H](C)CC)[C@@H](C)CC [LNKGAILKHIIK]
MIC (Bacillus subtilis 168): ≥ 65 µM
MIC [5]: ≥ 100 µM
MIC (Escherichia coli B): ≥ 100 µM
MIC [6]: ≥ 100 µM
MIC (Pseudomonas aeruginosa): > 100 µM
MIC (Staphylococcus aureus): > 100 µM

CC[C@H](C)[C@H](NC(=O)[C@@H]1CCCN1C(=O)[C@@H]1CCCN1C(=O)[C@H](CCCN=C(N)N)NC(=O)[C@H](CCCN=C(N)N)NC(=O)[C@H](Cc1c[nH]c2ccccc12)NC(=O)[C@@H]1CCCN1C(=O)[C@@H]1CCCN1C(=O)[C@H](CCCN=C(N)N)NC(=O)[C@H](Cc1ccccc1)NC(=O)[C@@H](N)CCCN=C(N)N)C(=O)N[C@@H](CCCN=C(N)N)C(=O)N1CCC[C@H]1C(=O)N1CCC[C@H]1C(=O)N[C@@H](Cc1ccccc1)C(=O)N[C@@H](Cc1ccc(O)cc1)C(=O)N1CCC[C@H]1C(=O)O [RFRPPWRRPPIRPPFYP]
MIC (Escherichia coli BW25113): 8 µM (≈ 17.9 µg/mL)

CC(C)[C@H](N)C(=O)N[C@@H](Cc1c[nH]c2ccccc12)C(=O)N[C@@H](CCCN=C(N)N)C(=O)N[C@@H](Cc1cnc[nH]1)C(=O)N[C@@H](Cc1c[nH]c2ccccc12)C(=O)O [VWRHW]
MIC (Bacillus cereus AS1.126): ≥ 100 µM
MIC [15]: ≥ 100 µM
MIC [16]: ≥ 100 µM
MIC (Escherichia coli AS1.349): ≥ 100 µM
MIC [17]: ≥ 100 µM
MIC [18]: ≥ 100 µM
MIC [19]: ≥ 100 µM

Source: DBAASP
